This experiment has as its target T1, HRP Type VIA (Armoracia rusticana, UniProt P00433).
T1 sequence (P00433 31-338): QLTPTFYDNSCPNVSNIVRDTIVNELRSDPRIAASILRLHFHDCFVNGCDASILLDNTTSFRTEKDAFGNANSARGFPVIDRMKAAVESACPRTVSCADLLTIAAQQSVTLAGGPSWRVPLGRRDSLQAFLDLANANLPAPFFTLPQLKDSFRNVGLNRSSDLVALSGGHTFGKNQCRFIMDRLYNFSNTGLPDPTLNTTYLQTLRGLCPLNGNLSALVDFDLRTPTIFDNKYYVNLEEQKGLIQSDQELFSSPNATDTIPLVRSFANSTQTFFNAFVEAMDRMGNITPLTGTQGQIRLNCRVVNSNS
As to conditions: for (d) Signal: Background: ratio (control = with no enhancer): control value in brackets not reported.

These results are taken from patent EP0626016B1, “[…] […]” (BRITISH TECHNOLOGY GROUP LIMITED, priority 1992, dated 1993).

Like-named read-outs stand apart in the source and are kept apart here.

On to “2-benzimidazolylphenylboronic acid [Compound 1046]”, for which, for the setting “0.01 mg/ml, 10µl test compound”, the “(a) Decrease in background (without HRP with test cpd.)” value is “Y”; the “(b) Increase in signal (with HRP, with test cpd.)” value (from here on “(b) Increase in signal”) is on record as “N”; the “(c) Increase in signal: background ratio” value is “N (N = no)”. Where the note is “0.1 mg/ml, 10µl test compound”, the “(a) Decrease in background (without HRP with test cpd.)” value is on record as “Y”; the “(b) Increase in signal” value is listed as “N”; the “(c) Increase in signal: background ratio” value is “N (N = no)”. For the same compound, under “1 mg/ml, 10µl test compound”, the “(a) Decrease in background (without HRP with test cpd.)” value is reported as “Y”; the “(b) Increase in signal” value is listed as “N”; the “(c) Increase in signal: background ratio” value is on record as “N (N = no)”.
For the compound `C[Si](C)(C)c1ccc(B(O)O)cc1` [Compound 1001, 4-(trimethylsilyl) benzeneboronic acid], the “(a) Decrease in background (without HRP with test cpd.)” value was “Y”; the “(b) Increase in signal” value is “N and Y”; the “(c) Increase in signal: background ratio” value was “Y (key: Column (c) shows whether there was an increase in the signal:background ratio by over 25% of the control value (Y = yes; N = no)”.
As for `OB(O)c1cccc2ccccc12` [Compound 1002, 1-naphthaleneboronic acid], where the note is “0.01 mg/ml, 10µl test compound”, the “(a) Decrease in background (without HRP with test cpd.)” value is “Y”; the “(b) Increase in signal” value is “N”; the “(c) Increase in signal: background ratio” value is recorded as “N (N = no)”; the “(d) Signal: Background: ratio (control = with no enhancer)” value worked out at 2.5. Under “0.1 mg/ml, 10µl test compound”, the “(a) Decrease in background (without HRP with test cpd.)” value was “Y”; the “(b) Increase in signal” value was “N”; the “(c) Increase in signal: background ratio” value was “Y (Column (c) shows whether there was an increase in the signal:background ratio by over 25% of the control value (Y = yes)”; the “(d) Signal: Background: ratio (control = with no enhancer)” value amounted to 3.4. In addition, where the note is “1 mg/ml, 10µl test compound”, the “(a) Decrease in background (without HRP with test cpd.)” value was “Y”; the “(b) Increase in signal” value was “N”; the “(c) Increase in signal: background ratio” value is reported as “N (N = no)”; the “(d) Signal: Background: ratio (control = with no enhancer)” value was 0.7 (2.3).
Take `COc1ccc(Br)cc1B(O)O` [Compound 1003, 5-bromo-2-methoxybenzeneboronic acid]: where the note is “0.01 mg/ml, 10µl test compound”, the “(a) Decrease in background (without HRP with test cpd.)” value is given as “Y”; the “(b) Increase in signal” value was “N”; the “(c) Increase in signal: background ratio” value is “Y (Column (c) shows whether there was an increase in the signal:background ratio by over 25% of the control value (Y = yes)”; the “(d) Signal: Background: ratio (control = with no enhancer)” value is reported as 8.6. For the same compound, for the setting “0.1 mg/ml, 10µl test compound”, the “(a) Decrease in background (without HRP with test cpd.)” value is reported as “Y”; the “(b) Increase in signal” value is given as “N”; the “(c) Increase in signal: background ratio” value is on record as “Y (Column (c) shows whether there was an increase in the signal:background ratio by over 25% of the control value (Y = yes)”; the “(d) Signal: Background: ratio (control = with no enhancer)” value is on record as 12.1. For the same compound, for the setting “1 mg/ml, 10µl test compound”, the “(a) Decrease in background (without HRP with test cpd.)” value was “Y”; the “(b) Increase in signal” value is recorded as “N”; the “(c) Increase in signal: background ratio” value is given as “N (N = no)”; the “(d) Signal: Background: ratio (control = with no enhancer)” value is on record as 2.6 (2.3).
Turning to `OB(O)c1ccccc1-c1ccccc1` [Compound 1004, 2-biphenylboronic acid], for the setting “0.01 mg/ml, 10µl test compound”, the “(a) Decrease in background (without HRP with test cpd.)” value is reported as “Y”; the “(b) Increase in signal” value is given as “N”; the “(c) Increase in signal: background ratio” value was “N (N = no)”; the “(d) Signal: Background: ratio (control = with no enhancer)” value came to 1.9. Moreover, where the note is “0.1 mg/ml, 10µl test compound”, the “(a) Decrease in background (without HRP with test cpd.)” value was “Y”; the “(b) Increase in signal” value was “N”; the “(c) Increase in signal: background ratio” value is listed as “N (N = no)”; the “(d) Signal: Background: ratio (control = with no enhancer)” value is given as 2.2. Besides, under “1 mg/ml, 10µl test compound”, the “(a) Decrease in background (without HRP with test cpd.)” value is given as “Y”; the “(b) Increase in signal” value is “N”; the “(c) Increase in signal: background ratio” value is listed as “N (N = no)”; the “(d) Signal: Background: ratio (control = with no enhancer)” value was 1.7 (2.3).
In the case of `OB(O)c1cc(N=Nc2cccc(C(F)(F)F)c2)ccc1O` [Compound 1005], for the setting “0.01 mg/ml, 10µl test compound”, the “(a) Decrease in background (without HRP with test cpd.)” value is given as “N”; the “(b) Increase in signal” value is reported as “Y”; the “(c) Increase in signal: background ratio” value was “Y (Column (c) shows whether there was an increase in the signal:background ratio by over 25% of the control value (Y = yes)”; the “(d) Signal: Background: ratio (control = with no enhancer)” value is 2.7. Where the note is “0.1 mg/ml, 10µl test compound”, the “(a) Decrease in background (without HRP with test cpd.)” value is “N”; the “(b) Increase in signal” value is given as “Y”; the “(c) Increase in signal: background ratio” value was “Y (Column (c) shows whether there was an increase in the signal:background ratio by over 25% of the control value (Y = yes)”; the “(d) Signal: Background: ratio (control = with no enhancer)” value was determined as 2.9. For the setting “1 mg/ml, 10µl test compound”, the “(a) Decrease in background (without HRP with test cpd.)” value is listed as “Y”; the “(b) Increase in signal” value is “N”; the “(c) Increase in signal: background ratio” value is “N (N = no)”; the “(d) Signal: Background: ratio (control = with no enhancer)” value is 2.4 (2.1).
On to `OB(O)c1ccc2cc(O)ccc2c1` [Compound 1006, 6-hydroxy-2-naphthaleneboronic acid], for which, under “0.01 mg/ml, 10µl test compound”, the “(a) Decrease in background (without HRP with test cpd.)” value is listed as “Y”; the “(b) Increase in signal” value was “N”; the “(c) Increase in signal: background ratio” value was “Y (Column (c) shows whether there was an increase in the signal:background ratio by over 25% of the control value (Y = yes)”; the “(d) Signal: Background: ratio (control = with no enhancer)” value is reported as 5.8. Also, under “0.1 mg/ml, 10µl test compound”, the “(a) Decrease in background (without HRP with test cpd.)” value was “Y”; the “(b) Increase in signal” value is “N”; the “(c) Increase in signal: background ratio” value is listed as “N (N = no)”; the “(d) Signal: Background: ratio (control = with no enhancer)” value is on record as 1.5. For the setting “1 mg/ml, 10µl test compound”, the “(a) Decrease in background (without HRP with test cpd.)” value is “Y”; the “(b) Increase in signal” value is on record as “N”; the “(c) Increase in signal: background ratio” value is “N (N = no)”; the “(d) Signal: Background: ratio (control = with no enhancer)” value was 0.3 (1.8).
As for `OB(O)c1cccc2c1Sc1ccccc1S2` [Compound 1007, 1-thianthreneboronic acid], where the note is “0.01 mg/ml, 10µl test compound”, the “(a) Decrease in background (without HRP with test cpd.)” value was “Y”; the “(b) Increase in signal” value is recorded as “N”; the “(c) Increase in signal: background ratio” value was “N (N = no)”; the “(d) Signal: Background: ratio (control = with no enhancer)” value came to 2.1. In addition, under “0.1 mg/ml, 10µl test compound”, the “(a) Decrease in background (without HRP with test cpd.)” value is recorded as “Y”; the “(b) Increase in signal” value is “N”; the “(c) Increase in signal: background ratio” value is on record as “N (N = no)”; the “(d) Signal: Background: ratio (control = with no enhancer)” value was determined as 2.5. For the same compound, where the note is “1 mg/ml, 10µl test compound”, the “(a) Decrease in background (without HRP with test cpd.)” value was “Y”; the “(b) Increase in signal” value is given as “N”; the “(c) Increase in signal: background ratio” value is “N (N = no)”; the “(d) Signal: Background: ratio (control = with no enhancer)” value is 1.8 (2.1).
As to `OB(O)c1cccc2c1oc1ccccc12` [Compound 1008, 4-dibenzofuranboronic acid], under “0.01 mg/ml, 10µl test compound”, the “(a) Decrease in background (without HRP with test cpd.)” value is “Y”; the “(b) Increase in signal” value is recorded as “N”; the “(c) Increase in signal: background ratio” value is reported as “N (N = no)”; the “(d) Signal: Background: ratio (control = with no enhancer)” value turned out to be 1.6. Where the note is “0.1 mg/ml, 10µl test compound”, the “(a) Decrease in background (without HRP with test cpd.)” value was “Y”; the “(b) Increase in signal” value was “N”; the “(c) Increase in signal: background ratio” value is “N (N = no)”; the “(d) Signal: Background: ratio (control = with no enhancer)” value was found to be 1.5. Under “1 mg/ml, 10µl test compound”, the “(a) Decrease in background (without HRP with test cpd.)” value is “Y”; the “(b) Increase in signal” value is listed as “N”; the “(c) Increase in signal: background ratio” value is recorded as “N (N = no)”; the “(d) Signal: Background: ratio (control = with no enhancer)” value is recorded as 1.3 (2.5).
